Assay results published in PubChem BioAssay (NCI).
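GI50: concentration for 50% inhibition of growth. TGI: total growth inhibition.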

What was measured:
Experiment in all cases: DTP human tumour cell line panel, 384-well format
A549 NSCLC = tested on: A549 NSCLC
KM12 colon = tested on: KM12 colon
MCF7 breast = tested on: MCF7 breast
HOP-92 NSCLC = tested on: HOP-92 NSCLC
NCI-H226 lung = tested on: NCI-H226 lung
SF-295 CNS = tested on: SF-295 CNS
NCI-H322M lung = tested on: NCI-H322M lung
NCI/ADR-RES ovarian = tested on: NCI/ADR-RES ovarian
RPMI-8226 leukemia = tested on: RPMI-8226 leukemia
NCI-H522 lung = tested on: NCI-H522 lung
SF-539 CNS = tested on: SF-539 CNS
DU-145 prostate = tested on: DU-145 prostate
M14 melanoma = tested on: M14 melanoma
NCI-H23 lung = tested on: NCI-H23 lung
PC-3 prostate = tested on: PC-3 prostate
T-47D breast = tested on: T-47D breast
786-0 renal = tested on: 786-0 renal
OVCAR-5 ovarian = tested on: OVCAR-5 ovarian
MOLT-4 leukemia = tested on: MOLT-4 leukemia
HS 578T breast = tested on: HS 578T breast
RXF 393 renal = tested on: RXF 393 renal
A498 renal = tested on: A498 renal
EKVX NSCLC = tested on: EKVX NSCLC
IGROV1 ovarian = tested on: IGROV1 ovarian
SK-MEL-5 melanoma = tested on: SK-MEL-5 melanoma
BT-549 breast = tested on: BT-549 breast
SF-268 CNS = tested on: SF-268 CNS
HCT-116 colon = tested on: HCT-116 colon
COLO 205 colon = tested on: COLO 205 colon
HCT-15 colon = tested on: HCT-15 colon
SK-MEL-28 melanoma = tested on: SK-MEL-28 melanoma
HT29 colon = tested on: HT29 colon
SN12C renal = tested on: SN12C renal
SNB-19 CNS = tested on: SNB-19 CNS
U251 glioblastoma = tested on: U251 glioblastoma
UACC-62 melanoma = tested on: UACC-62 melanoma
OVCAR-4 ovarian = tested on: OVCAR-4 ovarian
LOX IMVI melanoma = tested on: LOX IMVI melanoma
HCC-2998 colon = tested on: HCC-2998 colon
SW-620 colon = tested on: SW-620 colon
ACHN renal = tested on: ACHN renal
MDA-MB-435 melanoma = tested on: MDA-MB-435 melanoma
UO-31 renal = tested on: UO-31 renal
SNB-75 CNS = tested on: SNB-75 CNS
MDA-MB-231 breast = tested on: MDA-MB-231 breast
SK-OV-3 ovarian = tested on: SK-OV-3 ovarian
TK-10 renal = tested on: TK-10 renal
HOP-62 NSCLC = tested on: HOP-62 NSCLC
UACC-257 melanoma = tested on: UACC-257 melanoma
CCRF-CEM leukemia = tested on: CCRF-CEM leukemia
CAKI-1 renal = tested on: CAKI-1 renal
NCI-H460 NSCLC = tested on: NCI-H460 NSCLC
MALME-3M melanoma = tested on: MALME-3M melanoma
OVCAR-8 ovarian = tested on: OVCAR-8 ovarian
K-562 leukemia = tested on: K-562 leukemia
OVCAR-3 ovarian = tested on: OVCAR-3 ovarian
MDA-MB-468 breast = tested on: MDA-MB-468 breast
HL-60(TB) leukemia = tested on: HL-60(TB) leukemia

## N#Cc1c(Oc2ccc(F)c(NC(=O)Cc3cccc(C(F)(F)F)c3)c2)ccc2nc(NC(=O)C3CC3)sc12
A549 NSCLC
  GI50: 1870 nM
  TGI: > 100000 nM
KM12 colon
  GI50: 1210 nM
  TGI: > 100000 nM
MCF7 breast
  GI50: 717 nM
  TGI: > 100000 nM
HOP-92 NSCLC
  GI50: 783 nM
  TGI: 2250 nM
NCI-H226 lung
  GI50: 312 nM
  TGI: 4190 nM
SF-295 CNS
  GI50: 516 nM
  TGI: > 100000 nM
NCI-H322M lung
  GI50: 1330 nM
  TGI: > 100000 nM
NCI/ADR-RES ovarian
  GI50: 1030 nM
  TGI: 4650 nM
RPMI-8226 leukemia
  GI50: 198 nM
  TGI: 847 nM
NCI-H522 lung
  GI50: 484 nM
  TGI: 5650 nM
SF-539 CNS
  GI50: 1070 nM
  TGI: 3060 nM
DU-145 prostate
  GI50: 2770 nM
  TGI: > 100000 nM
M14 melanoma
  GI50: 12.5 nM
  TGI: 117 nM
NCI-H23 lung
  GI50: 98.9 nM
  TGI: 1260 nM
PC-3 prostate
  GI50: 1420 nM
  TGI: > 100000 nM
T-47D breast
  GI50: 1200 nM
  TGI: 6700 nM
786-0 renal
  GI50: 913 nM
  TGI: 7150 nM
OVCAR-5 ovarian
  GI50: 677 nM
  TGI: 9850 nM
MOLT-4 leukemia
  GI50: 97.5 nM
  TGI: 238 nM
HS 578T breast
  GI50: 698 nM
  TGI: 2520 nM
RXF 393 renal
  GI50: 159 nM
  TGI: 1600 nM
A498 renal
  GI50: 1700 nM
  TGI: 5200 nM
EKVX NSCLC
  GI50: 3800 nM
  TGI: 35600 nM
IGROV1 ovarian
  GI50: 434 nM
  TGI: 3110 nM
SK-MEL-5 melanoma
  GI50: 17.1 nM
  TGI: 1680 nM
BT-549 breast
  GI50: 1320 nM
  TGI: > 100000 nM
SF-268 CNS
  GI50: 39.5 nM
  TGI: 263 nM
HCT-116 colon
  GI50: 158 nM
  TGI: 1850 nM
COLO 205 colon
  GI50: 31.1 nM
  TGI: 2640 nM
HCT-15 colon
  GI50: 401 nM
  TGI: > 100000 nM
SK-MEL-28 melanoma
  GI50: 16.7 nM
  TGI: 68 nM
HT29 colon
  GI50: 64.2 nM
  TGI: > 100000 nM
SN12C renal
  GI50: 461 nM
  TGI: 4710 nM
SNB-19 CNS
  GI50: 2630 nM
  TGI: > 100000 nM
U251 glioblastoma
  GI50: 486 nM
  TGI: 8260 nM
UACC-62 melanoma
  GI50: 15.2 nM
  TGI: 106 nM
OVCAR-4 ovarian
  GI50: 3640 nM
  TGI: > 100000 nM
LOX IMVI melanoma
  GI50: 41.8 nM
  TGI: 992 nM
HCC-2998 colon
  GI50: 291 nM
  TGI: 7010 nM
SW-620 colon
  GI50: 470 nM
  TGI: 8510 nM
ACHN renal
  GI50: 755 nM
  TGI: > 100000 nM
MDA-MB-435 melanoma
  GI50: 62.2 nM
  TGI: > 100000 nM
UO-31 renal
  GI50: 427 nM
  TGI: 2220 nM
SNB-75 CNS
  GI50: 1300 nM
  TGI: 4360 nM
MDA-MB-231 breast
  GI50: 78.3 nM
  TGI: 2520 nM
SK-OV-3 ovarian
  GI50: 1790 nM
  TGI: > 100000 nM
TK-10 renal
  GI50: 311 nM
  TGI: 3520 nM
HOP-62 NSCLC
  GI50: 1700 nM
  TGI: > 100000 nM
UACC-257 melanoma
  GI50: 26.6 nM
  TGI: 138 nM
CCRF-CEM leukemia
  GI50: 263 nM
  TGI: 2970 nM
CAKI-1 renal
  GI50: 1140 nM
  TGI: 8630 nM
NCI-H460 NSCLC
  GI50: 745 nM
  TGI: > 100000 nM
MALME-3M melanoma
  TGI: 30.9 nM
OVCAR-8 ovarian
  GI50: 746 nM
  TGI: > 100000 nM
K-562 leukemia
  GI50: 114 nM
  TGI: 300 nM
OVCAR-3 ovarian
  GI50: 2410 nM
  TGI: 82100 nM
MDA-MB-468 breast
  GI50: 1060 nM
  TGI: 6560 nM
HL-60(TB) leukemia
  GI50: 80.5 nM
  TGI: 914 nM
